Reference: patent US7858621B2 (Amorepacific Corporation, priority 2006, dated 2010)
pIC50: −log10 of the molar value. Like-named read-outs stand apart in the source and are kept apart here.

Legend:
[1] = molecular target: T1, vanilloid receptor (Rattus norvegicus, UniProt O35433); test: 45Ca influx test in cultured neonatal rat DRG neurons, inhibition of capsaicin response; assay type: cell-based
T1 construct: DRG nerve cells from the primary culture of 2 days were equilibrated; endogenous in cells; host or cells: primary culture of dorsal root ganglion neurons from neonatal SD rats
T1 sequence (O35433 whole entry): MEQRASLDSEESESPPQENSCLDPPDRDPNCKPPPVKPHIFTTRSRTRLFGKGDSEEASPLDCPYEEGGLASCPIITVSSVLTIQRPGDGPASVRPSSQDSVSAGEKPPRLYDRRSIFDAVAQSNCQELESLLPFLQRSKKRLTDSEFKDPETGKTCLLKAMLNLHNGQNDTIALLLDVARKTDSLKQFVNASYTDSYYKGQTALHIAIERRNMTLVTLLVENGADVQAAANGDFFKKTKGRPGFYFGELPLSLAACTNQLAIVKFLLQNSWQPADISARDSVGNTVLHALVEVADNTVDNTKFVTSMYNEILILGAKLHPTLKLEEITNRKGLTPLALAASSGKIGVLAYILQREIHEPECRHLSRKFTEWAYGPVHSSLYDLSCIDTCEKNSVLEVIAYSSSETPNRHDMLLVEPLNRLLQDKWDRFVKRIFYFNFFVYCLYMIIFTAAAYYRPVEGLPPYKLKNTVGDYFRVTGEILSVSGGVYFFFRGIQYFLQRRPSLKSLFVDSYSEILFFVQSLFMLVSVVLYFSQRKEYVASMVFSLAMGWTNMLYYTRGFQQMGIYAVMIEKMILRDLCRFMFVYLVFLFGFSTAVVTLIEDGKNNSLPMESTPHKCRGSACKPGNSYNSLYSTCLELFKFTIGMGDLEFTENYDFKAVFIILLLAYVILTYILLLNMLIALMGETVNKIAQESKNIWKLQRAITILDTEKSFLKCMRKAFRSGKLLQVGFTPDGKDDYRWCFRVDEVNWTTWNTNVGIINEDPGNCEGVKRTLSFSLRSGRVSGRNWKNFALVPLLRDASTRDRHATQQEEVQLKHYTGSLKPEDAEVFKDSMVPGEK
Outline: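 45Ca influx measured by scintillation counting of SDS-eluted neurons after 10 min at room temperature with test compound, 0.5 μM capsaicin (final) and 10 μCi/ml 45Ca in Ca/Mg-free HEPES-HBSS pH 7.4. Cells: primary DRG neurons from newborn SD rats, cultured 2 days with NGF and Ara-C.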

[2] = Metabolic stability test in rat liver microsomes; assay type: in vitro ADME; details: 5 μg/mL, 0.5 mg/mL protein, 30 min incubation
Description: (§1) 1) Metabolic Stability Test
(§2) Diluted sample (final 5 μg/mL in 0.1 M potassium phosphate buffer, pH 7.4) was pre-incubated with cofactors (glucose-6-phosphate 3.3 mM, NADPH 1.3 mM, MgCl2 0.16 mM, glucose-6-phosphate dehydrogenase 0.4 U/mL final) and enzyme reaction was initiated with the addition of human intestinal (1 mg/mL protein) or rat liver microsomes (0.5 mg/mL protein). Reaction was terminated with 2× volume of cold acetonitrile after 1 min (initial point) or 30 min (reacted sample) incubation. In case of human intestinal microsomes, 2 hr reaction time was employed. Reaction mixture was undergone extraction in shaking bath over 20 min, after which resultant supernatant was separated by centrifugation. Area of parent compound peak was analyzed in the supernatant using HPLC-UV method and the extent of metabolism was shown as the decreased compound peak area (%) from initial point.

[3] = Metabolic stability test in human intestinal microsomes; assay type: in vitro ADME; details: 5 μg/mL, 1 mg/mL protein, 2 hr reaction time
Description: as §1, §2

[4] = PK study in rats, single oral administration; assay type: in vivo; set-up: AUC: concentration or dose not given beside the values; details: rat, plasma
Description: Pharmacokinetics of compounds in rats were analyzed using the following experiment. Rats were fasted overnight prior to administration and until approximately 4 hours after administration. Rats were given a single oral administration of compound at same dose. Administration volume was 10 ml/kg. Blood samples were collected from the retro-orbital sinus at various times over the following 7 hrs. Immediately after each collection, plasmas were separated from blood cells by centrifugation and stored at −20° C. until the analysis was performed. The plasma samples were analyzed using a reverse phase high-performance chromatography (HPLC) method.

[5] = neonatal rat DRG neurons, capsaicin 0.5 μM, 45Ca influx, read-out: Antagonist Calcium Uptake Test (IC50)

Row | Structure (SMILES) | pIC50 [1, 5] | Stability RLM (% metabolized in rat liver microsomes) [2] [%] | Stability HIM (% metabolized in human intestinal microsomes) [3] [%] | AUC [4] [ng·h/mL] | Cmax [4] [ng/mL] | Tmax [4] [h] | half-life [4] [h] | pIC50 ([1]; Table 2, unit inferred, read-out: IC50)
1 | CCCCNc1nc(C(F)(F)F)ccc1/C=C/C(=O)NCc1cc(C)c(NS(C)(=O)=O)c(F)c1 [Example 188, N-(3-Fluoro-4-methanesulfonylamino-5-methyl-benzyl)-3-(2-butylamino-6-trifluoromethyl-pyridin-3-yl)-acrylamide] | 7.06 | 2.7 | 1.6 | – | – | – | – | –
2 | C#Cc1cc(CNC(=O)/C=C/c2ccc(C(F)(F)F)nc2NC(C)C)cc(F)c1NS(C)(=O)=O [Example 100, N-(3-Ethynyl-5-fluoro-4-methanesulfonylamino-benzyl)-3-(2-isopropylamino-6-trifluoromethyl-pyridin-3-yl)-acrylamide] | 7.16 | 3.4 | 0 | 17400 | 2530 | 3 | 3.21 | –
3 | C#Cc1cc(CNC(=O)/C=C/c2ccc(C(F)(F)F)nc2OCCOC)cc(F)c1NS(C)(=O)=O [Example 75, N-(3-Ethynyl-5-fluoro-4-methanesulfonylamino-benzyl)-3-[2-(2-methoxy-ethoxy)-6-trifluoromethyl-pyridin-3-yl]-acrylamide] | 6.43 | 17.0 | 17.0 | – | – | – | – | –
4 | C#Cc1cc(CNC(=O)/C=C/c2ccc(C(F)(F)F)nc2OC)cc(F)c1NS(C)(=O)=O [Example 42, N-(3-Ethynyl-5-fluoro-4-methanesulfonylamino-benzyl)-3-(2-methoxy-6-trifluoromethyl-pyridin-3-yl)-acrylamide] | 7.02 | 17.1 | 17.1 | – | – | – | – | –
5 | C#Cc1cc(CNC(=O)/C=C/c2ccc(C(F)(F)F)nc2NCCOC)cc(F)c1NS(C)(=O)=O [Example 65, N-(3-Ethynyl-5-fluoro-4-methanesulfonylamino-benzyl)-3-[2-(2-methoxy-ethylamino)-6-trifluoromethyl-pyridin-3-yl]-acrylamide] | 7.05 | 15.3 | 14.0 | – | – | – | – | –
6 | COCCNc1nc(C(F)(F)F)ccc1/C=C/C(=O)NCc1ccc(NS(C)(=O)=O)c(F)c1 [Example 45, N-(3-Fluoro-4-methanesulfonylamino-benzyl)-3-[2-(2-methoxy-ethylamino)-6-trifluoromethyl-pyridin-3-yl]-acrylamide] | 6.29 | 10 | 8.0 | – | – | – | – | –
7 | C#Cc1cc(CNC(=O)/C=C/c2ccc(C(F)(F)F)nc2N2CCOCC2)cc(F)c1NS(C)(=O)=O [Example 12, N-(3-Ethynyl-5-fluoro-4-methanesulfonylamino-benzyl)-3-(2-morpholin-4-yl-6-trifluoromethyl-pyridin-3-yl)-acrylamide] | 6.59 | 11.7 | 12.0 | 3240 | 723 | 2.38 | 1.7 | –

Continued, values first:

Row | pIC50 [1, 5] | Stability RLM (% metabolized in rat liver microsomes) [2] [%] | Stability HIM (% metabolized in human intestinal microsomes) [3] [%] | AUC [4] [ng·h/mL] | Cmax [4] [ng/mL] | Tmax [4] [h] | half-life [4] [h] | pIC50 ([1]; Table 2, unit inferred, read-out: IC50) | Structure (SMILES)
8 | 7.31 | 0 | 0 | – | – | – | – | – | CCCNc1nc(C(F)(F)F)ccc1/C=C/C(=O)NCc1cc(F)c(NS(C)(=O)=O)c(F)c1 [Example 222, N-(3,5-Difluoro-4-methanesulfonylamino-benzyl)-3-(2-propylamino-6-trifluoromethyl-pyridin-3-yl)-acrylamide]
9 | – | 12.8 | 54.0 | – | – | – | – | 6.07 | C#Cc1cc(CNC(=O)/C=C/c2ccc(C(C)(C)C)cc2N2CCOCC2)cc(F)c1NS(C)(=O)=O [drawing 334, reference compound]
10 | 6.66 | 0.5 | 0 | 654 | 215 | 2 | 1.26 | – | C=Cc1cc(CNC(=O)/C=C/c2ccc(C(F)(F)F)nc2N2CCOCC2)cc(F)c1NS(C)(=O)=O [Example 281, N-(3-Ethenyl-5-fluoro-4-methanesulfonylamino-benzyl)-3-(2-morpholin-1-yl-6-trifluoromethyl-pyridin-3-yl)-acrylamide]
11 | 6.30 | 0 | 3.2 | – | – | – | – | – | CCCc1nc(C(F)(F)F)ccc1/C=C/C(=O)NCc1ccc(NS(C)(=O)=O)c(Cl)c1 [Example 253, N-(3-Chloro-4-methanesulfonylamino-benzyl)-3-(2-propyl-6-trifluoromethyl)-pyridin-3-yl-acrylamide]
